# In PMC7138307 (PLoS ONE, 2020):
# Columns and labels:
# [1] = Pharmacokinetic experiment, free drug levels in mouse; format: in vivo
# Protocol: In vitro plasma and brain protein binding values were generated via the Rapid Equilibrium Dialysis method. The compound of interest was incubated in K2EDTA mouse plasma and rat brain homogenate (homogenized 1:7 (w:v) in 1xPBS) purchased from BioIVT, opposite a buffered compartment of 100mM Potassium phosphate/150mM Sodium chloride, pH 7.4, at 1uM for 4hr and 6hr respectively. […] Free fractions (fu) were then calculated by comparing peak-area ratios of matrix and buffered compartments.
# In vivo pharmacokinetic studies were conducted in accordance with Biogen IACUC guidelines in 20-25g C57BL/6 mice purchased from Charles River Labs. A total of 9 mice, split into 3 groups (A,B,C), were dosed subcutaneously at 30mg/kg (3mg/mL; 10mL/kg) in a vehicle of 20% Captisol. […] Mouse brains were harvested for total drug concentration measurement, placed into MP Biomedicals Lysing Matrix D tubes, and stored at -80°C, along with plasma samples to await quantitative analysis.
# Total drug concentration in plasma and brain tissue was measured via well-established bioanalytical extraction (protein precipitation) and detection methods (LC-MS/MS). […] Reconstituted extracts were then analyzed via LC-MS/MS (AB Sciex 5500) utilizing a binary HPLC setup (Shimadzu LC-20ADvp) and reverse-phase chromatography gradient (ACE 3 C18-AR). […]
# [2] = molecular target: T1, TAO2 (Mus musculus, UniProt Q6ZQ29); assay: Ex vivo KiNativ ATP/ADP probe competition in mouse cortical brain lysates; format: binding
# T1 construct: from tissue; host or cells: mouse cortical brain lysate
# T1 sequence (Q6ZQ29 1-1240): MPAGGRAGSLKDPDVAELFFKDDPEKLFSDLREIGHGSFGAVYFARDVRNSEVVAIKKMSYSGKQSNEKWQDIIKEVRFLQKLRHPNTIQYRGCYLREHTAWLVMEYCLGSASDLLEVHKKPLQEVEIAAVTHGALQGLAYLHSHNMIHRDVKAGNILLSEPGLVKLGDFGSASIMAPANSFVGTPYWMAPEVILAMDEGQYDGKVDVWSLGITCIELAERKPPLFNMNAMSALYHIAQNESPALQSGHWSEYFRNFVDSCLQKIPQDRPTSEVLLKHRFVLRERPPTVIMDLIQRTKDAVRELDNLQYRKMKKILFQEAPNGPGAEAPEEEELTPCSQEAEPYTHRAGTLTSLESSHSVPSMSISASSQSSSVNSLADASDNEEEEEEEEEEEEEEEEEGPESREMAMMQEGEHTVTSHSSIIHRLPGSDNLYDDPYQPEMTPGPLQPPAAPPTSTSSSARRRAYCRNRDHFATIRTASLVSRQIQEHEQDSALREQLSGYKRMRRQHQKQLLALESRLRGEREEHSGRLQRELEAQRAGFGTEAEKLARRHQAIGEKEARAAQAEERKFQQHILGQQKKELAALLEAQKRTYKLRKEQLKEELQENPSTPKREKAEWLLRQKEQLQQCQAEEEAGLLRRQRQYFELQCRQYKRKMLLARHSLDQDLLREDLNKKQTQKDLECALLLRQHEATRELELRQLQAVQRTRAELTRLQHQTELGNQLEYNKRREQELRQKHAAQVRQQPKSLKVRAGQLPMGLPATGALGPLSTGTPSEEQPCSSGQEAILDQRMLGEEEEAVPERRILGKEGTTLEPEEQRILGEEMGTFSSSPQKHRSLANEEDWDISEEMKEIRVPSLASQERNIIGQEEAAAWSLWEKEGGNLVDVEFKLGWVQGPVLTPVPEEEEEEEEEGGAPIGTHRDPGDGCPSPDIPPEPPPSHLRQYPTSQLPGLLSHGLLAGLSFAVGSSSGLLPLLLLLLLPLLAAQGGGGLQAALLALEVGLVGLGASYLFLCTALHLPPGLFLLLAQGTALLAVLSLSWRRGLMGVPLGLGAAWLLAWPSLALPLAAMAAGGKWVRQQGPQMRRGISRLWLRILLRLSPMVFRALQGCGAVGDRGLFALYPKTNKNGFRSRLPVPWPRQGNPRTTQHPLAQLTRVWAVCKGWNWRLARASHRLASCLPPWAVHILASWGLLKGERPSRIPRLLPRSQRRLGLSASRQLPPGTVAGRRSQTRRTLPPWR
# [3] = molecular target: T2, FER (Mus musculus, UniProt P70451); assay: as above; format: binding
# T2 construct: from tissue; host or cells: mouse cortical brain lysate
# [4] = test system: TAO1, TAO3; assay: as above; format: binding; details: DIKAGNILLTEPGQVK, Lys2
# T2 sequence (P70451 whole entry): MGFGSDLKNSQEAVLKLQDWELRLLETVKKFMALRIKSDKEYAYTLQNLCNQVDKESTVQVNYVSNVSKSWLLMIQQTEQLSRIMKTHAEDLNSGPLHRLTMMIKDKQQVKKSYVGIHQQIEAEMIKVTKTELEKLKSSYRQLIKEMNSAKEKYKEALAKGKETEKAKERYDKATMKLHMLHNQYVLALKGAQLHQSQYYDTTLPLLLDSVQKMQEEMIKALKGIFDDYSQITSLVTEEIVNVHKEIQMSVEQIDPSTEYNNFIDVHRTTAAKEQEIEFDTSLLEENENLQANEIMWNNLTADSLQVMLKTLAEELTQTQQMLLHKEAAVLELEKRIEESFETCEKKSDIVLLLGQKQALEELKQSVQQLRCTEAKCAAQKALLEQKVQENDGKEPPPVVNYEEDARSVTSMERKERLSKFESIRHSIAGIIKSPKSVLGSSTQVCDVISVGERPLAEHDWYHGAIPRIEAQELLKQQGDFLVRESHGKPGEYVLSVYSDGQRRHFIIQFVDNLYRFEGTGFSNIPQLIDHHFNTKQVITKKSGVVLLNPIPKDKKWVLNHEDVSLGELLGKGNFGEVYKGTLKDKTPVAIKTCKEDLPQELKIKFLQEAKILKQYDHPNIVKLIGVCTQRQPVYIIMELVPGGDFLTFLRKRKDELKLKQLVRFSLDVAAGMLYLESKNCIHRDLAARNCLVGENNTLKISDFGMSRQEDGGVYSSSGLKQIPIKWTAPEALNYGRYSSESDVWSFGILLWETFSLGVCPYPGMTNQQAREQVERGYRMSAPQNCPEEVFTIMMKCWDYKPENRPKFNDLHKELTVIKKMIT
compound,measurement,setting,value
CCC(C)(O)C#Cc1cc2c(ccn2-c2ccnc(N)n2)cn1 (stereo not shown) [BIIB-TTBK1i],clearance rate,[1],rapid
same,Percent Inhibition at 1μM,"[2]; DVKAGNILLSEPGLVK, Lys2, ADP probe",82.6%
same,Percent Inhibition at 1μM,"[2]; DVKAGNILLSEPGLVK, Lys2, ATP probe",93.2%
same,Percent Inhibition at 1μM,"[2]; NSEVVAIKK, Lys1, ADP probe",86.4%
same,Percent Inhibition at 1μM,"[3]; QEDGGVYSSSGLKQIPIK, Activation Loop, ADP probe",66.7%
same,Percent Inhibition at 1μM,"[3]; QEDGGVYSSSGLKQIPIK, Protein Kinase Domain, ATP probe",69.4%
same,Percent Inhibition at 1μM,"[3]; TPVAIKTCKEDLPQELK, Lys1, ADP probe",79.1%
same,Percent Inhibition at 1μM,"[3]; TPVAIKTCKEDLPQELK, Lys1, ATP probe",74.9%
same,Percent Inhibition at 1μM,[4]; ADP probe,66.8%
same,Percent Inhibition at 1μM,[4]; ATP probe,69.5%
